Results as given in patent US20250154686A1, “COMPOUND LIBRARY” (CHUGAI SEIYAKU KABUSHIKI KAISHA, priority 2021, published 2025).

Target: T1, Bcl-2 protein (Recombinant Human Bcl-2 Protein) (Homo sapiens, UniProt P10415)
T1 construct: purchased Novus Biologicals NBP2-34889
Test: AS-MS evaluation of binding of the Example 4 mixture library (1200 compounds/well) to Bcl-2, ASMS ratio (%)
Conditions: AS-MS, Example 4 mixture library; for ASMS ratio (%) n = 1: Bcl-2, replicate n = 1; for ASMS ratio (%) n = 2: Bcl-2, replicate n = 2
Summary of the method: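 Affinity-selection MS: after spin-column size exclusion and organic extraction, LC/MS signals give an ASMS ratio (%), referenced to protein-free samples with and without column treatment. Binding step combined 20 μM human Bcl-2 with the 1200-compound pool at 20 nM per compound, 1 h, 23° C., dark, pH 7.4 Tris-HCl/NaCl/Tween-20/DTT.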

T1 sequence (P10415 whole entry): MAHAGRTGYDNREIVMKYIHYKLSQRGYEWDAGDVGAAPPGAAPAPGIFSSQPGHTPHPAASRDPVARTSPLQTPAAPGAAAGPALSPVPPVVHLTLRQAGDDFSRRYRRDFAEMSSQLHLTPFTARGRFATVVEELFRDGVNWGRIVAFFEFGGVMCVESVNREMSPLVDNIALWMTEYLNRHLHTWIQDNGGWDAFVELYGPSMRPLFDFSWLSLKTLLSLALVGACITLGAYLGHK

Row | ASMS ratio (%) n = 1 | ASMS ratio (%) n = 2 | SMILES
1 | 0.0% | 0.0% | CCOc1cncc(-c2cc(CN3CCN(c4ccc(C(=O)NS(=O)(=O)CCC(F)(F)F)cc4)CC3)cc(OC(C)C)c2)c1 [Compound B2N058-01]
2 | 0.0% | 0.0% | CCOc1cccc(-c2cc(OC)c(CN3CCN(c4ccc(C(=O)NS(=O)(=O)CCC(F)(F)F)cc4)CC3)c(OC)c2)c1 [Compound B2N059-01, 4-[4-[[4-(3-Ethoxyphenyl)-2,6-dimethoxyphenyl]methyl]piperazin-1-yl]-N-(3,3,3-trifluoropropylsulfonyl)benzamide]
3 | 0.0% | 0.0% | CCOc1cncc(-c2cc(OC)c(CN3CCN(c4ccc(C(=O)NS(=O)(=O)CCC(F)(F)F)cc4)CC3)c(OC)c2)c1 [Compound B2N060-01, 4-[4-[[4-(5-Ethoxypyridin-3-yl)-2,6-dimethoxyphenyl]methyl]piperazin-1-yl]-N-(3,3,3-trifluoropropylsulfonyl)benzamide]
4 | 0.0% | 0.0% | CCOc1cccc(-c2cc(CN3CCN(c4ccc(C(=O)NS(=O)(=O)CCC(F)(F)F)cc4)CC3)cc(C(F)(F)F)c2)c1 [Compound B2N061-01]
5 | 0.0% | 0.0% | CCOc1cncc(-c2cc(CN3CCN(c4ccc(C(=O)NS(=O)(=O)CCC(F)(F)F)cc4)CC3)cc(C(F)(F)F)c2)c1 [Compound B2N062-01, 4-[4-[[3-(5-Ethoxypyridin-3-yl)-5-(trifluoromethyl)phenyl]methyl]piperazin-1-yl]-N-(3,3,3-trifluoropropylsulfonyl)benzamide]
6 | −0.3% | −3.8% | CCOc1cccc(-c2cc(CN3CCN(c4ccc(C(=O)NS(=O)(=O)CCC(F)(F)F)cc4)CC3)cc(OC(F)(F)F)c2)c1 [Compound B2N063-01, 4-[4-[[3-(3-Ethoxyphenyl)-5-(trifluoromethoxy)phenyl]methyl]piperazin-1-yl]-N-(3,3,3-trifluoropropylsulfonyl)benzamide]
7 | 0.0% | 0.0% | CCOc1cncc(-c2cc(CN3CCN(c4ccc(C(=O)NS(=O)(=O)CCC(F)(F)F)cc4)CC3)cc(OC(F)(F)F)c2)c1 [Compound B2N064-01, 4-[4-[[3-(5-Ethoxypyridin-3-yl)-5-(trifluoromethoxy)phenyl]methyl]piperazin-1-yl]-N-(3,3,3-trifluoropropylsulfonyl)benzamide]
8 | 0.0% | 0.0% | CCOc1cccc(-c2ccc(CN3CCN(c4ccc(C(=O)NS(=O)(=O)CCC(F)(F)F)cc4)CC3)c3ccccc23)c1 [Compound B2N065-01, 4-[4-[[4-(3-Ethoxyphenyl)naphthalen-1-yl]methyl]piperazin-1-yl]-N-(3,3,3-trifluoropropylsulfonyl)benzamide]
9 | 0.0% | 0.0% | CCOc1cncc(-c2ccc(CN3CCN(c4ccc(C(=O)NS(=O)(=O)CCC(F)(F)F)cc4)CC3)c3ccccc23)c1 [Compound B2N066-01, 4-[4-[[4-(5-Ethoxypyridin-3-yl)naphthalen-1-yl]methyl]piperazin-1-yl]-N-(3,3,3-trifluoropropylsulfonyl)benzamide]
10 | 0.0% | 0.0% | CCOc1cccc(-c2csc(CN3CCN(c4ccc(C(=O)NS(=O)(=O)CCC(F)(F)F)cc4)CC3)c2)c1 [Compound B2N067-01, 4-[4-[[4-(3-Ethoxyphenyl)thiophen-2-yl]methyl]piperazin-1-yl]-N-(3,3,3-trifluoropropylsulfonyl)benzamide]
11 | 0.0% | 0.5% | CCOc1cncc(-c2csc(CN3CCN(c4ccc(C(=O)NS(=O)(=O)CCC(F)(F)F)cc4)CC3)c2)c1 [Compound B2N068-01, 4-[4-[[4-(5-Ethoxypyridin-3-yl)thiophen-2-yl]methyl]piperazin-1-yl]-N-(3,3,3-trifluoropropylsulfonyl)benzamide]
12 | −1.8% | −1.5% | CCOc1cccc(C#Cc2ccccc2CN2CCN(c3ccc(C(=O)NS(=O)(=O)CCC(F)(F)F)cc3)CC2)c1 [Compound B2N069-01, 4-[4-[[2-[2-(3-Ethoxyphenyl)ethynyl]phenyl]methyl]piperazin-1-yl]-N-(3,3,3-trifluoropropylsulfonyl)benzamide]
13 | 0.0% | 0.0% | CCOc1cncc(C#Cc2ccccc2CN2CCN(c3ccc(C(=O)NS(=O)(=O)CCC(F)(F)F)cc3)CC2)c1 [Compound B2N070-01, 4-[4-[[2-[2-(5-Ethoxypyridin-3-yl)ethynyl]phenyl]methyl]piperazin-1-yl]-N-(3,3,3-trifluoropropylsulfonyl)benzamide]
14 | 0.0% | 0.0% | CCOc1cccc(-c2ccccc2CN2CCN(c3ccc(C(=O)NS(=O)(=O)CCC(F)(F)F)nn3)CC2)c1 [Compound B2N071-01, 6-[4-[[2-(3-Ethoxyphenyl)phenyl]methyl]piperazin-1-yl]-N-(3,3,3-trifluoropropylsulfonyl)pyridazine-3-carboxamide]
15 | 0.0% | 0.1% | CCOc1cncc(-c2ccccc2CN2CCN(c3ccc(C(=O)NS(=O)(=O)CCC(F)(F)F)nn3)CC2)c1 [Compound B2N072-01, 6-[4-[[2-(5-Ethoxypyridin-3-yl)phenyl]methyl]piperazin-1-yl]-N-(3,3,3-trifluoropropylsulfonyl)pyridazine-3-carboxamide]
16 | 0.0% | 0.0% | CCOc1cccc(-c2ccc(CN3CCN(c4ccc(C(=O)NS(=O)(=O)CCC(F)(F)F)nn4)CC3)cc2C)c1 [Compound B2N073-01, 6-[4-[[4-(3-Ethoxyphenyl)-3-methylphenyl]methyl]piperazin-1-yl]-N-(3,3,3-trifluoropropylsulfonyl)pyridazine-3-carboxamide]
17 | 0.0% | 0.0% | CCOc1cncc(-c2ccc(CN3CCN(c4ccc(C(=O)NS(=O)(=O)CCC(F)(F)F)nn4)CC3)cc2C)c1 [Compound B2N074-01, 6-[4-[[4-(5-Ethoxypyridin-3-yl)-3-methylphenyl]methyl]piperazin-1-yl]-N-(3,3,3-trifluoropropylsulfonyl)pyridazine-3-carboxamide]
18 | 0.0% | 0.0% | CCOc1cncc(-c2ccc(CN3CCN(c4ccc(C(=O)NS(=O)(=O)CCC(F)(F)F)nn4)CC3)c(CC)c2)c1 [Compound B2N076-01, 6-[4-[[4-(5-Ethoxypyridin-3-yl)-2-ethylphenyl]methyl]piperazin-1-yl]-N-(3,3,3-trifluoropropylsulfonyl)pyridazine-3-carboxamide]
19 | 0.0% | 0.0% | CCOc1cccc(-c2ccc(CN3CCN(c4ccc(C(=O)NS(=O)(=O)CCC(F)(F)F)nn4)CC3)cc2F)c1 [Compound B2N077-01, 6-[4-[[4-(3-Ethoxyphenyl)-3-fluorophenyl]methyl]piperazin-1-yl]-N-(3,3,3-trifluoropropylsulfonyl)pyridazine-3-carboxamide]
20 | 0.0% | 0.0% | CCOc1cncc(-c2ccc(CN3CCN(c4ccc(C(=O)NS(=O)(=O)CCC(F)(F)F)nn4)CC3)cc2F)c1 [Compound B2N078-01, 6-[4-[[4-(5-Ethoxypyridin-3-yl)-3-fluorophenyl]methyl]piperazin-1-yl]-N-(3,3,3-trifluoropropylsulfonyl)pyridazine-3-carboxamide]
21 | 0.0% | 0.0% | CCOc1cccc(-c2ccc(CN3CCN(c4ccc(C(=O)NS(=O)(=O)CCC(F)(F)F)nn4)CC3)c(OC)c2)c1 [Compound B2N079-01, 6-[4-[[4-(3-Ethoxyphenyl)-2-methoxyphenyl]methyl]piperazin-1-yl]-N-(3,3,3-trifluoropropylsulfonyl)pyridazine-3-carboxamide]
22 | 0.0% | 0.0% | CCOc1cncc(-c2ccc(CN3CCN(c4ccc(C(=O)NS(=O)(=O)CCC(F)(F)F)nn4)CC3)c(OC)c2)c1 [Compound B2N080-01, 6-[4-[[4-(5-Ethoxypyridin-3-yl)-2-methoxyphenyl]methyl]piperazin-1-yl]-N-(3,3,3-trifluoropropylsulfonyl)pyridazine-3-carboxamide]
23 | 0.0% | 0.0% | CCOc1cccc(-c2cc(CN3CCN(c4ccc(C(=O)NS(=O)(=O)CCC(F)(F)F)nn4)CC3)cc(OCC)c2)c1 [Compound B2N081-01]
24 | 2.5% | 2.8% | CCOc1cncc(-c2cc(CN3CCN(c4ccc(C(=O)NS(=O)(=O)CCC(F)(F)F)nn4)CC3)cc(OCC)c2)c1 [Compound B2N082-01, 6-[4-[[3-Ethoxy-5-(5-ethoxypyridin-3-yl)phenyl]methyl]piperazin-1-yl]-N-(3,3,3-trifluoropropylsulfonyl)pyridazine-3-carboxamide]
25 | 0.0% | 0.0% | CCOc1cccc(-c2cc(CN3CCN(c4ccc(C(=O)NS(=O)(=O)CCC(F)(F)F)nn4)CC3)cc(OC(C)C)c2)c1 [Compound B2N083-01, 6-[4-[[3-(3-Ethoxyphenyl)-5-propan-2-yloxyphenyl]methyl]piperazin-1-yl]-N-(3,3,3-trifluoropropylsulfonyl)pyridazine-3-carboxamide]
26 | 0.0% | 0.0% | CCOc1cncc(-c2cc(CN3CCN(c4ccc(C(=O)NS(=O)(=O)CCC(F)(F)F)nn4)CC3)cc(OC(C)C)c2)c1 [Compound B2N084-01]
